Our source for the IC50 and FRET IC50 values is US9802920B2, “Inhibitors of bruton's tyrosine kinase” (HOFFMANN-LA ROCHE INC., priority 2013, dated 2017).

Where only a bound is given, the exact number is not on record here.

As a reminder, the IC50 is the concentration needed to halve the response being measured.

For the first test, the target named is inactivated state of Bruton's Tyrosine Kinase (Homo sapiens (Human), UniProt Q06187). In words: Bruton's Tyrosine Kinase (BTK) Inhibition TR-FRET competition assay. The format is binding. The following applies: Kinase Tracer 178, incubated 18-24 h at 14° C. The source says: Calculate percent activity from raw data in cpm percent activity=(sample−bkg)/(total activity−bkg)×100 Calculate IC50 from percent activity, using one-site dose response sigmoidal model y=A+((B−A)/(1+((x/C)^D)))) x=cmpd conc, y=% activity, A=min, B=max, C=IC50, D=1 (hill slope) Bruton's Tyrosine Kinase (BTK) Inhibition TR-FRET (Time Resolved FRET) Assay
Sequence of inactivated state of Bruton's Tyrosine Kinase (Q06187 whole entry): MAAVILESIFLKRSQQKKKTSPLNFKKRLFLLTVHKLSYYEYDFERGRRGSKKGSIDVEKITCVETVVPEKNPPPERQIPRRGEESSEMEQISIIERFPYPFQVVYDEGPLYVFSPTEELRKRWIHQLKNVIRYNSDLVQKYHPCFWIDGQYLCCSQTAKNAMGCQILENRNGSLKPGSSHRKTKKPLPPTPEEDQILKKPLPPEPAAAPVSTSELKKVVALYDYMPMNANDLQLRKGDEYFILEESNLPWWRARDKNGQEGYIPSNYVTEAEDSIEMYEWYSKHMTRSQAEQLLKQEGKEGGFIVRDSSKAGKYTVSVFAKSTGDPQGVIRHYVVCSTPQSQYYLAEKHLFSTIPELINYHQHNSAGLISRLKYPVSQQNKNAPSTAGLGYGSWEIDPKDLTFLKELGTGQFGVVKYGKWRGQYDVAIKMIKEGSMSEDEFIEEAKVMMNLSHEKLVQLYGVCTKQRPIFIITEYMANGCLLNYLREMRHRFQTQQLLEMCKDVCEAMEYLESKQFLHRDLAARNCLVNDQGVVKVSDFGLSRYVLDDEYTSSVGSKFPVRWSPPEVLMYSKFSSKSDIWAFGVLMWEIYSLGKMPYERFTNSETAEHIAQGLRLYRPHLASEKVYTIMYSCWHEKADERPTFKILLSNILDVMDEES
This BTK competition assay measures compound potency (IC50) for the inactivated state of Bruton's Tyrosine Kinase using FRET (Förster/Flouresence Resonance Energy Transfer) technology. The BTK-Eu complex was incubated on ice one hour prior to use at a starting concentration of 50 nM BTK-Bioease™: 10 nM Eu-streptavidin (Perkin-Elmer Catalog# AD0062). The assay buffer consisted of 20 mM HEPES (pH 7.15), 0.1 mM DTT, 10 mM MgCl2, 0.5 mg/ml BSA with 3% Kinase Stabilizer (Fremont Biosolutions, Catalog # STB-K02). After 1 h, the reaction mixture from above was diluted 10 fold in assay buffer to make 5 nM BTK: 1 nM Eu-Streptavidin complex (donor fluorophore). 18 μl of a mixture of 0.11 nM BTK-Eu and 0.11 nM Kinase Tracer 178 (Invitrogen, Catalog # PV5593) with BTK-Eu alone as no negative control, was then dispensed into 384-well flat bottom plates (Greiner, 784076). Compounds to be tested in assay were prepared as 10× concentrations and serial dilution in half-log increments was performed in DMSO so as to generate 10 point curves. To initiate the FRET reaction, compounds prepared as 10× stock in DMSO was added to the plates and the plates were incubated 18-24 h at 14° C.
After the incubation the plates were read on a BMG Pherastar Fluorescent plate reader (or equivalent) and used to measure the emission energy from the europium donor fluorophore (620 nm emission) and the FRET (665 nm emission). The negative control well values were averaged to obtain the mean minimum. The positive “no inhibitor” control wells were averaged to obtain the mean maximum. Percent of maximal FRET was calculated using following equation: % max FRET=100×[(FSRcmpd−FSRmean min)/(FSRmean max−FSRmean min)] where FSR=FRET Signal ratio. % Max FRET curves were plotted in Activity Base (Excel) and the IC50(%), hill slope, z′ and % CV were determined. The mean IC50 and standard deviation will be derived from duplicate curves (singlet inhibition curves from two independent dilutions) using Microsoft Excel.
For orientation: TR-FRET usually uses a lanthanide donor and a delayed reading to cut background.
Turning to `Nc1c(C(=O)c2cc3ccccc3[nH]2)cnn1-c1ccc(Oc2ccccc2)c(F)c1` [Compound I-1, [5-Amino-1-(3-fluoro-4-phenoxy-phenyl)-1H-pyrazol-4-yl]-(1H-indol-2-yl)-methanone], the IC50 is 41 nM.

`Nc1c(C(=O)c2cc3ccccc3[nH]2)cnn1-c1ccc(Oc2ccccc2)c(Cl)c1` [Compound I-5] had an IC50 of 216 nM.

Compound `Nc1c(C(=O)c2cc3ccccc3[nH]2)cnn1-c1ccc(Oc2ccc(F)c(F)c2)cc1` [Compound I-6, {5-Amino-1-[4-(3,4-difluoro-phenoxy)-phenyl]-1H-pyrazol-4-yl}-(1H-indol-2-yl)-methanone] came in with an IC50 of 1000 nM.

`Nc1c(C(=O)c2cc3ccccc3[nH]2)cnn1-c1ccc(Oc2ccccc2)c(O)c1` [Compound I-8, [5-Amino-1-(3-hydroxy-4-phenoxy-phenyl)-1H-pyrazol-4-yl]-(1H-indol-2-yl)-methanone] came in with an IC50 of 59 nM.

For the compound `COc1cc(Oc2ccccc2)ccc1-n1ncc(C(=O)c2cc3ccccc3[nH]2)c1N` [Compound I-9, [5-Amino-1-(2-methoxy-4-phenoxy-phenyl)-1H-pyrazol-4-yl]-(1H-indol-2-yl)-methanone], the IC50 was 146 nM.

`Nc1c(C(=O)c2cc3ccccc3[nH]2)cnn1-c1ccc(Oc2ccccc2)cc1O` [Compound I-10, [5-Amino-1-(2-hydroxy-4-phenoxy-phenyl)-1H-pyrazol-4-yl]-(1H-indol-2-yl)-methanone] registered an IC50 of 162 nM.

`Nc1c(C(=O)c2cc3ccccc3[nH]2)cnn1-c1ccc(OC2CCCC2)cc1` [Compound I-12, [5-Amino-1-(4-cyclopentyloxy-phenyl)-1H-pyrazol-4-yl]-(1H-indol-2-yl)-methanone]: the FRET IC50 is > 1000 nM.

Turning to `CC(C)(C)COc1ccc(-n2ncc(C(=O)c3cc4ccccc4[nH]3)c2N)cc1` [Compound I-13, {5-Amino-1-[4-(2,2-dimethyl-propoxy)-phenyl]-1H-pyrazol-4-yl}-(1H-indol-2-yl)-methanone], the FRET IC50 is > 1000 nM.

`Cc1cc(Oc2cccc(F)c2F)ccc1-n1ncc(C(=O)c2cc3ccccc3[nH]2)c1N` [Compound I-14, {5-Amino-1-[4-(2,3-difluoro-phenoxy)-2-methyl-phenyl]-1H-pyrazol-4-yl}-(1H-indol-2-yl)-methanone]: the IC50 was found to be 3 nM.

On to `Cc1cc(Oc2ccccc2C#N)ccc1-n1ncc(C(=O)c2cc3ccccc3[nH]2)c1N` [Compound I-15, 2-{4-[5-Amino-4-(1H-indole-2-carbonyl)-pyrazol-1-yl]-3-methyl-phenoxy}-benzonitrile], for which the IC50 came out at 7 nM.

`N#Cc1cccc(Oc2ccc(-n3ncc(C(=O)c4cc5ccccc5[nH]4)c3N)c(Cl)c2)c1` [Compound I-16, 3-{4-[5-Amino-4-(1H-indole-2-carbonyl)-pyrazol-1-yl]-3-chloro-phenoxy}-benzonitrile]: the IC50 is 82 nM.

Take `Cc1cc(Oc2cccc(C(N)=O)c2)ccc1-n1ncc(C(=O)c2nc3ccccc3[nH]2)c1N` [Compound I-17, 3-{4-[5-Amino-4-(1H-benzoimidazole-2-carbonyl)-pyrazol-1-yl]-3-methyl-phenoxy}-benzamide]: the IC50 worked out at 230 nM.

For `Cc1cc(Oc2cccc(F)c2F)ccc1-n1ncc(C(=O)c2nc3ccccc3[nH]2)c1N` [Compound I-18, {5-Amino-1-[4-(2,3-difluoro-phenoxy)-2-methyl-phenyl]-1H-pyrazol-4-yl}-(1H-benzoimidazol-2-yl)-methanone], the IC50 turned out to be 5 nM.

As for `Nc1c(C(=O)c2cc3ccc(CN4CCOCC4)cc3[nH]2)cnn1-c1ccc(Oc2ccccc2)cc1` [Compound I-19, [5-Amino-1-(4-phenoxy-phenyl)-1H-pyrazol-4-yl]-(6-morpholin-4-ylmethyl-1H-indol-2-yl)-methanone], the IC50 came to 0.5 nM.

Compound `N#Cc1cccc(Oc2ccc(-n3ncc(C(=O)c4cc5ccc(CN6CCOCC6)cc5[nH]4)c3N)c(Cl)c2)c1` [Compound I-20, 3-{4-[5-Amino-4-(6-morpholin-4-ylmethyl-1H-indole-2-carbonyl)-pyrazol-1-yl]-3-chloro-phenoxy}-benzonitrile] came in with an IC50 of 1 nM.

The target of a further test is Btk enzyme (His-tagged, full-length) (Homo sapiens (Human), UniProt Q06187). In words: Bruton's Tyrosine Kinase (Btk) Inhibition Assay, radioactive 33P filtration capture. The format is biochemical. The following applies: 100 μM ATP, 30 μM peptide substrate; read-out: Radiometric IC50. An excerpt: Bruton's Tyrosine Kinase (Btk) Inhibition Assay
Sequence of Btk enzyme (His-tagged, full-length) (Q06187 whole entry): as above
The assay is a capture of radioactive ^33P phosphorylated product through filtration. The interactions of Btk, biotinylated SH2 peptide substrate (Src homology), and ATP lead to phosphorylation of the peptide substrate. Biotinylated product is bound streptavidin sepharose beads. All bound, radiolabeled products are detected by scintillation counter.
Plates assayed are 96-well polypropylene (Greiner) and 96-well 1.2 μm hydrophilic PVDF filter plates (Millipore). Concentrations reported here are final assay concentrations: 10-100 μM compounds in DMSO (Burdick and Jackson), 5-10 nM Btk enzyme (His-tagged, full-length), 30 μM peptide substrate (Biotin-Aca-[…]-NH2), 100 μM ATP (Sigma), 8 mM imidazole (Sigma, pH 7.2), 8 mM glycerol-2-phosphate (Sigma), 200 μM EGTA (Roche Diagnostics), 1 mM MnCl2 (Sigma), 20 mM mgCl2 (Sigma), 0.1 mg/mL BSA (Sigma), 2 mM DTT (Sigma), 1 μCi ^33P ATP (Amersham), 20% streptavidin sepharose beads (Amersham), 50 mM EDTA (Gibco), 2 M NaCl (Gibco), 2 M NaCl w/1% phosphoric acid (Gibco), microscint-20 (Perkin Elmer).
IC50 determinations are calculated from 10 data points per compound utilizing data produced from a standard 96-well plate assay template. One control compound and seven unknown inhibitors were tested on each plate and each plate was run twice. Typically, compounds were diluted in half-log starting at 100 μM and ending at 3 nM. The control compound was staurosporine. Background was counted in the absence of peptide substrate. Total activity was determined in the presence of peptide substrate. The following protocol was used to determine Btk inhibition.
Sample preparation: The test compounds were diluted at half-log increments in assay buffer (imidazole, glycerol-2-phosphate, EGTA, MnCl2, mgCl2, BSA).
1) Rinse beads by centrifuging at 500 g
2) Reconstitute the beads with PBS and EDTA to produce a 20% bead slurry
3) Pre-incubate reaction mix without substrate (assay buffer, DTT, ATP, ^33P ATP) and mix with substrate (assay buffer, DTT, ATP, ^33P ATP, peptide substrate) 30° C. for 15 min.
4) To start assay, pre-incubate 10 μL Btk in enzyme buffer (imidazole, glycerol-2-phosphate, BSA) and 10 μL of test compounds for 10 min at RT.
5) Add 30 μL reaction mixture without or with substrate to Btk and compounds.
6) Incubate 50 μL total assay mix for 30 min at 30° C.
7) Transfer 40 μL of assay to 150 μL bead slurry in filter plate to stop reaction.
8) Wash filter plate after 30 min, with following steps
3×250 μL NaCl containing 1% phosphoric acid
9) Dry plate for 1 h at 65° C. or overnight at RT
10) Add 50 μL microscint-20 and count ^33P cpm on scintillation counter. […]
With `Nc1c(C(=O)c2cc3ccccc3[nH]2)cnn1-c1ccc(Oc2ccccc2)nc1` [Compound I-2, [5-Amino-1-(6-phenoxy-pyridin-3-yl)-1H-pyrazol-4-yl]-(1H-indol-2-yl)-methanone], the IC50 came to 869 nM.

With `Nc1c(C(=O)c2cc3ccccc3[nH]2)cnn1-c1ccc(Oc2ccccn2)cc1` [Compound I-3, {5-Amino-1-[4-(pyridin-2-yloxy)-phenyl]-1H-pyrazol-4-yl}-(1H-indol-2-yl)-methanone], the IC50 was 502 nM.

On to `Nc1c(C(=O)c2cc3ccccc3[nH]2)cnn1-c1ccc(Oc2cccnc2)cc1` [Compound I-4, {5-Amino-1-[4-(pyridin-3-yloxy)-phenyl]-1H-pyrazol-4-yl}-(1H-indol-2-yl)-methanone], for which the IC50 stood at 22000 nM.

Regarding `CC(C)Oc1ccc(-n2ncc(C(=O)c3cc4ccccc4[nH]3)c2N)cc1` [Compound I-11, [5-Amino-1-(4-isopropoxy-phenyl)-1H-pyrazol-4-yl]-(1H-indol-2-yl)-methanone], the IC50 came to 73800 nM.
